Values after ≈ are worked out from the molar mass of the structure shown.
Key:
[1] = tested on: methicillin-resistant S. aureus (ATCC 43300); assay: MIC and MBC, broth dilution, MRSA ATCC 43300; format: cell-based; settings: Staphylococcus aureus
Experimental: (§1) The synthesized pleuromutilin derivatives 8–30 were tested against four Gram-positive bacteria (MRSA ATCC 43300, S. aureus ATCC 29213 and two clinical strains of S. aureus (AD3 and 144) isolated from Guangdong Province). Tiamulin was used as the positive control in this experiment.
(§2) MIC values were tested following our previous work. The derivatives were dissolved in an aqueous solution of 2.5% tween-80 and 2.5% DMSO to make a solution with a concentration of 1000 µg/mL. The solution was diluted 12 times with MH broth to give a concentration range of 32–0.01 µg/mL. The bacteria (5 × 10^5 CFU/mL) were added in each well. For each compound concentration, three parallel experiments were set. The 96-well plate was incubated for 22–26 h at 37 °C. The MIC value was recorded as the minimal concentration that inhibits the visible growth of tested bacteria completely.
(§3) The MBC of these pleuromutilin derivatives were tested according to a previously reference. […] Then, the values of MBC were determined by laying 100 μL aliquots from the wells onto the MH agar plates without visible growth. The MH agar plate was cultured for a further 22–26 h at 37 °C.

S. aureus (ATCC 29213) = assay: MIC and MBC, broth dilution, S. aureus ATCC 29213; format: cell-based; settings: Staphylococcus aureus, ATCC29213
Experimental: as §1, §2, §3

S. aureus (AD3) = assay: MIC and MBC, broth dilution, S. aureus AD3; format: cell-based; settings: Staphylococcus aureus; S. aureus AD3 (clinical strain)
Experimental: as §1, §2, §3

S. aureus (144) = assay: MIC and MBC, broth dilution, S. aureus 144; format: cell-based; settings: Staphylococcus aureus; S. aureus 144 (clinical strain)
Experimental: as §1, §2, §3

50S ribosome = assay: SPR interaction and affinity analysis; format: binding, S. aureus ATCC 43300; settings: 4 °C; for Avg kd / Avg ka: 1:1 Langmuir binding; for Kd: KD = Kd/Ka
Experimental: S. aureus ATCC 43300 was used to prepare the 50S ribosomal subunit the same way as described previously. Cells were grown overnight in Brain Heart Infusion broth at 37 °C and harvested for 1.5 h at an OD600. Cells were washed with 10 mM Tris-HCl twice at pH = 7.5, and resuspended in 5 mL buffer A (20 mM HEPES-HCl pH = 7.5, 21 mM Mg(OAc)2, 100 mM NH4Cl, 1 mM DTT, 1 mM EDTA). Cells were broken by an ultrasound crusher. The lysate was centrifuged for 90 min at 20,000× g to clear cell debris.
The solution was layered on a sucrose cushion of 15 mL (10 mM Hepes-KOH pH 7.5, 25 mM Mg(OAc)2, 500 mM KCl, […], 1 mM DTT, 0.5 mM EDTA). Centrifugation was carried out for 15 h at 45,000 rpm using an ultracentrifuge Beckman (Beckman Coulter, Shanghai, China), Type 70Ti rotor. The crude ribosome pellet was resuspended in buffer E (10 mM Hepes-KOH pH 7.5, 10 mM Mg(OAc)2, 100 mM KCl, 1 mM DTT, 0.5 mM EDTA), then layered on 9 mL of 7–30% sucrose gradient and centrifuged in an ultracentrifuge Beckman, type SW40Ti rotor at 17,100 rpm for 15 h. The gradient was analyzed on the AKTA explorer system (Amersham, UK). The fractions corresponding to the 50S ribosomal subunit were collected and further subjected to precipitation by PEG 20,000. The 50S ribosomal subunit pellet was gently dissolved in 200 µL of storage buffer (10 mM HEPES-HCl pH = 7.5, 10 mM Mg(OAc)2, 15 mM KCl, 60 mM NH4Cl, 1 mM DTT) and stored at −80 °C.
SPR affinity analysis was performed on the bScreen LB 991 Label-free Microarray System (Berthold Technologies, Black Forest, Germany) at 4 °C and Biodot AD-1520 Array Printer (BIODOT Inc., Irvine, CA, USA) with a Photo-cross-linker SensorCHIP™. Concentrations of each compound were diluted to 100 μM with DMSO as the printing working solution for immobilization. A Biodot AD-1520 Array Printer (BIODOT Inc., CA, USA) was used to control the photo-cross-linker sensor chip and print samples. Each sample was printed four times. In order to check the chip quality and check whether the detection system works, DMSO was used as a system-negative control and rapamycin as a positive control. All positive control dots were divided into four groups and printed on the four corners of the sensor chip. The sensor chip was dried in vacuum after the array print and quickly transferred to a spectra radiator for a photo cross-linking reaction. The sensor chip was washed with C2H5OH, DMF and H2O in turn and evaporated in a N2 atmosphere for 15 min. Then, the Flowcell Cover were assembled.
The 50S ribosome was diluted separately to 200 nM, 400 nM, 800 nM, 1600 nM and 3200 nM with PBST (pH = 7.4, 0.1% Tween 20). Different concentrations of ribosome solutions were injected at a flow rate of 0.5 μL⋅s^−1 for 600 s at the associating stage at 4 °C, followed by PBST at a flow rate of 0.5⋅μL·s^−1 for 360 s at each dissociating stage. Then, the surface was regenerated with Glycine-HCl (pH = 2.0) at a flow rate of 2⋅μL·s^−1 for 300 s.
The raw data of the binding process of compounds and the 50S ribosome were recorded in real time. We compared the response unit (RU) of surface resonance to determine the different binding affinity between each sample dot. The process and analysis of association rate constants (Ka) and dissociation rate constants (Kd) and the equilibrium dissociation constant (KD, Kd/Ka) were performed using the data analysis software of the bScreen LB 991 Label-free Microarray System according to a single-site binding model (1:1 Langmuir binding) with mass transfer limitations for binding kinetics determination.

Molecule	MBC [1] [µg/mL]	MIC [1] [µg/mL]	MBC (S. aureus (ATCC 29213)) [µg/mL]	MIC (S. aureus (ATCC 29213)) [µg/mL]	MBC (S. aureus (AD3)) [µg/mL]	MIC (S. aureus (AD3)) [µg/mL]	MBC (S. aureus (144)) [µg/mL]	MIC (S. aureus (144)) [µg/mL]	Avg kd (50S ribosome) [s⁻¹]	Kd (50S ribosome) [µM]	melting point [°C]	Avg ka (50S ribosome) [M⁻¹ s⁻¹]
C=C[C@]1(C)C[C@@H](OC(=O)CNc2cccc(F)c2)[C@]2(C)[C@H](C)CC[C@]3(CCC(=O)[C@H]32)[C@@H](C)[C@@H]1O [Compound 8]	0.12 (≈ 0.254 µM)	0.03 (≈ 0.0636 µM)	0.25 (≈ 0.53 µM)	0.12 (≈ 0.254 µM)	0.5 (≈ 1.06 µM)	0.12 (≈ 0.254 µM)	0.5 (≈ 1.06 µM)	0.25 (≈ 0.53 µM)				
C=C[C@]1(C)C[C@@H](OC(=O)CNc2cccc(Cl)c2)[C@]2(C)[C@H](C)CC[C@]3(CCC(=O)[C@H]32)[C@@H](C)[C@@H]1O [Compound 10, 22-(3-Chloroanilineyl)-22-deoxypleuromutilin]	0.12 (≈ 0.246 µM)	0.12 (≈ 0.246 µM)	0.25 (≈ 0.512 µM)	0.12 (≈ 0.246 µM)	0.5 (≈ 1.02 µM)	0.125 (≈ 0.256 µM)	0.5 (≈ 1.02 µM)	0.25 (≈ 0.512 µM)	0.00224	26	158 to 160	
C=C[C@]1(C)C[C@@H](OC(=O)CNc2ccc(Cl)cc2)[C@]2(C)[C@H](C)CC[C@]3(CCC(=O)[C@H]32)[C@@H](C)[C@@H]1O [Compound 11, 22-(4-Chloroanilineyl)-22-deoxypleuromutilin]	0.25 (≈ 0.512 µM)	0.12 (≈ 0.246 µM)	1 (≈ 2.05 µM)	0.5 (≈ 1.02 µM)	1 (≈ 2.05 µM)	0.25 (≈ 0.512 µM)	2 (≈ 4.1 µM)	1 (≈ 2.05 µM)	0.0019	51.8	94 to 95	
C=C[C@]1(C)C[C@@H](OC(=O)CNc2cccc(Br)c2)[C@]2(C)[C@H](C)CC[C@]3(CCC(=O)[C@H]32)[C@@H](C)[C@@H]1O [Compound 12, 22-(3-Bromoanilineyl)-22-deoxypleuromutilin]	0.25 (≈ 0.469 µM)	0.12 (≈ 0.225 µM)	0.5 (≈ 0.939 µM)	0.25 (≈ 0.469 µM)	1 (≈ 1.88 µM)	0.25 (≈ 0.469 µM)	2 (≈ 3.76 µM)	1 (≈ 1.88 µM)	6.25e-05	1.53	161 to 163	
C=C[C@]1(C)C[C@@H](OC(=O)CNc2ccc(Br)cc2)[C@]2(C)[C@H](C)CC[C@]3(CCC(=O)[C@H]32)[C@@H](C)[C@@H]1O [Compound 13, 22-(4-Bromoanilineyl)-22-deoxypleuromutilin]	0.12 (≈ 0.225 µM)	0.12 (≈ 0.225 µM)	0.25 (≈ 0.469 µM)	0.25 (≈ 0.469 µM)	1 (≈ 1.88 µM)	0.25 (≈ 0.469 µM)	1 (≈ 1.88 µM)	0.5 (≈ 0.939 µM)	0.197	6350	97 to 98	
C=C[C@]1(C)C[C@@H](OC(=O)CNCc2ccccc2F)[C@]2(C)[C@H](C)CC[C@]3(CCC(=O)[C@H]32)[C@@H](C)[C@@H]1O [Compound 14, 22-(2-Fluorobenzylamineyl)-22-deoxypleuromutilin]	2 (≈ 4.12 µM)	1 (≈ 2.06 µM)	8 (≈ 16.5 µM)	4 (≈ 8.24 µM)	8 (≈ 16.5 µM)	2 (≈ 4.12 µM)	8 (≈ 16.5 µM)	4 (≈ 8.24 µM)	0.065	424	163 to 164	153
C=C[C@]1(C)C[C@@H](OC(=O)CNCc2cccc(F)c2)[C@]2(C)[C@H](C)CC[C@]3(CCC(=O)[C@H]32)[C@@H](C)[C@@H]1O [Compound 15, 22-(3-Fluorobenzylamineyl)-22-deoxypleuromutilin]	2 (≈ 4.12 µM)	1 (≈ 2.06 µM)	8 (≈ 16.5 µM)	4 (≈ 8.24 µM)	8 (≈ 16.5 µM)	2 (≈ 4.12 µM)	16 (≈ 32.9 µM)	8 (≈ 16.5 µM)	0.00432	2.21	143 to 144	1960
C=C[C@]1(C)C[C@@H](OC(=O)CNCc2ccc(F)cc2)[C@]2(C)[C@H](C)CC[C@]3(CCC(=O)[C@H]32)[C@@H](C)[C@@H]1O [Compound 16, 22-(4-Fluorobenzylamineyl)-22-deoxypleuromutilin]	8 (≈ 16.5 µM)	4 (≈ 8.24 µM)	32 (≈ 65.9 µM)	16 (≈ 32.9 µM)	16 (≈ 32.9 µM)	8 (≈ 16.5 µM)	32 (≈ 65.9 µM)	16 (≈ 32.9 µM)	0.00929	4560	76 to 77	2.04
C=C[C@]1(C)C[C@@H](OC(=O)CNCCc2ccccc2)[C@]2(C)[C@H](C)CC[C@]3(CCC(=O)[C@H]32)[C@@H](C)[C@@H]1O [Compound 17, 22-(2-PhenylethylaMineyl)-22-deoxypleuromutilin]	1 (≈ 2.08 µM)	1 (≈ 2.08 µM)	8 (≈ 16.6 µM)	2 (≈ 4.15 µM)	8 (≈ 16.6 µM)	2 (≈ 4.15 µM)	4 (≈ 8.3 µM)	4 (≈ 8.3 µM)	0.00963	4690	73 to 75	2.05
penicillin [reference compound]									0.515			2.10

From publication PMC8838415, “Discovery of Novel Pleuromutilin Derivatives as Potent Antibacterial Agents for the Treatment of MRSA Infection” (Molecules, 2022)
